Test results taken from patent US20110039762A1, “TARGETED ANTIMICROBIAL MOIETIES” (C3 JIAN, INC., priority 2009, published 2011).
Entries after “also recorded” stand apart in the source; their conditions may differ. Ends that are not written are not given here.

Experiments:
E. faecalis = assay: Kill or inhibit growth/proliferation; morphology, biofilm and growth disruption (Tables 5, 6); assay type: cell-based, Enterococcus faecalis; parameters: key: A: Peptide aggregates; B: Less hyphal formation; Clumps; Diffuse clumps and small polyps; F: Diffuse growth; H: Thin; I: Growth inhibition; Microcolony formation; Rippled; Small polyps; Thick; W: Halo formation on top, microlonies on bottom; further: test concentration or dose not given here
MRSA = assay: as above; assay type: cell-based, Methicillin-resistant Staphylococcus aureus; parameters: key: A: Peptide aggregates; B: Less hyphal formation; Clumps; Diffuse clumps and small polyps; F: Diffuse growth; H: Thin; I: Growth inhibition; Microcolony formation; Rippled; Small polyps; Thick; W: Halo formation on top, microlonies on bottom
S. pneumoniae = assay: as above; assay type: cell-based, Streptococcus pneumoniae; parameters: key: A: Peptide aggregates; B: Less hyphal formation; Clumps; Diffuse clumps and small polyps; F: Diffuse growth; H: Thin; I: Growth inhibition; Microcolony formation; Rippled; Small polyps; Thick; W: Halo formation on top, microlonies on bottom
E. coli = assay: as above; assay type: cell-based, Escherichia coli; parameters: key: A: Peptide aggregates; B: Less hyphal formation; Clumps; Diffuse clumps and small polyps; F: Diffuse growth; H: Thin; I: Growth inhibition; Microcolony formation; Rippled; Small polyps; Thick; W: Halo formation on top, microlonies on bottom; further: test concentration or dose not given here
[1] = tested on: microorganisms (e.g., bacteria, yeasts, fungi); assay: Targeting peptide binding to target microorganisms (Table 3); settings: microorganism(s) the targeting peptide binds; peptide binding conducted in aqueous buffers varied by peptide solubility, preferably 1x PBS
microorganisms = assay: Peptides having multiple activities (targeting/binding, antimicrobial, growth or phenotype altering)
Description: In certain embodiments, peptides described herein can have multiple activities. Thus for example, a peptide can have both binding/targeting activity and antimicrobial activity. Such peptides can be used, e.g., in a chimeric construct, for any or all of these properties. Thus, for example, a peptide designated “B” in Table 8 can be used as a targeting peptide. If it is also designated G or M it can also be used for antimicrobial activity.

S. epidermidis = assay: Kill or inhibit growth/proliferation; morphology, biofilm and growth disruption (Tables 5, 6); assay type: cell-based, Staphylococcus epidermidis; parameters: key: A: Peptide aggregates; B: Less hyphal formation; Clumps; Diffuse clumps and small polyps; F: Diffuse growth; H: Thin; I: Growth inhibition; Microcolony formation; Rippled; Small polyps; Thick; W: Halo formation on top, microlonies on bottom; further: test concentration or dose not given here
Wherever Organism, effect is given: test concentration or dose not given here.

Substance | Organism, effect (E. faecalis) | Organism, effect (MRSA) | Organism, effect (S. pneumoniae) | Organism, effect (E. coli) | Target(s) [1] | Activities (microorganisms) | Organism, effect (S. epidermidis)
PF-427: peptide having multiple activities (YVLEYHGLRATQDVDAFMAL; Peptide with targeting and/or antimicrobial activity) | E. faecalis (C) | MRSA (C) | S. pneumoniae (R) | E. coli (C) | M. luteus; also recorded: P. aeruginosa; also recorded: C. albicans; also recorded: C. jejuni | G B | –
PF-519: peptide having multiple activities (chain 1 YLVYSGVLATAAAF-NH2; chain 2 YLVYSGVLATAAAF-NH2) | E. faecalis (C) | MRSA (C) | S. pneumoniae (S) | E. coli (R) | M. luteus; also recorded: E. faecalis; also recorded: C. jeikeium | G B | –
PF-478: peptide having multiple activities (chain 1 HLFILKSHLKPFPPFRYTYD; chain 2 HLFILKSHLKPFPPFRYTYD; Peptide with targeting and/or antimicrobial activity) | – | MRSA (H) | S. pneumoniae (C) | E. coli (C) | – | G B | S. epidermidis (C)
PF-619: peptide having multiple activities (WSRVPGHSDTGWKVWHRW; Peptide with targeting and/or antimicrobial activity) | – | MRSA (M) | S. pneumoniae (C) | E. coli (C) | – | G B | S. epidermidis (M)
PF-453: peptide having multiple activities (chain 1 IIQDIAHAFGY; chain 2 IIQDIAHAFGY; Peptide with targeting and/or antimicrobial activity) | – | MRSA (C) | S. pneumoniae (C) | E. coli (C) | M. luteus; also recorded: E. coli; also recorded: P. aeruginosa; also recorded: S. pneumoniae; also recorded: E. faecalis; also recorded: C. jeikeium; also recorded: C. jejuni | G B | S. epidermidis (C)
PF-540: peptide having multiple activities (chain 1 KSILILIKVIFIGQTTIIL; chain 2 KSILILIKVIFIGQTTIIL; Peptide with targeting and/or antimicrobial activity) | – | MRSA (H) | S. pneumoniae (R) | E. coli (R) | C. albicans | G B | S. epidermidis (H)
PF-532 (KFIYKYKLSFIIYKILIQTLTMELNK; Peptide with targeting and/or antimicrobial activity) | E. faecalis (C) | MRSA (C) | S. pneumoniae (C) | E. coli (C) | – | – | –
